Laboratory results published in patent US12509424B2, “Compound and composition as PDGF receptor kinase inhibitor” (NIPPON SHINYAKU CO., LTD., priority 2019, dated 2025).
Read-outs that look alike come from different tables or passages of the source.

How the values were obtained:
PDGFR-β = PDGFR-β (Homo sapiens (Human), UniProt P09619); test: PDGFR-β tyrosine kinase inhibitory action (HTRF KinEASE-TK); format: biochemical; conditions: PDGFR-β enzyme 1 ng/μL, 30° C. for 30 minutes; read-out: PDGF-β IC50
Experimental: (§1) 1. Preparation of Test Substance
This DMSO solution was diluted by 8 times with an assay buffer 1 (50 mM HEPES (pH 7.0), 0.02% NaN3, 0.01% Bovine Serum Albumin, 0.1 mM orthovanadate, 1 mM Dithiothreitol, 5 mM MgCl2, and 1 mM MnCl2) and further diluted by 5 times with an assay buffer 2 (50 mM HEPES (pH 7.0), 0.02% NaN3, 0.01% Bovine Serum Albumin, 0.1 mM orthovanadate, 1 mM Dithiothreitol, 5 mM MgCl2, 1 mM MnCl2, and 40 nM Supplemented Enzymatic Buffer (cisbio)).
2. Measurement of PDGFR-β Tyrosine Kinase Inhibitory Action
For the measurement, the HTRF KinEASE-TK kit from Cisbio Bioassays SAS was used. To a 384 well plate, the test substance solution was added at 4 μL each, then 2 μL of a PDGFR-β enzyme solution (final concentration of 1 ng/μL, Carna Biosciences, Inc.) and 4 μL of a substrate solution obtained by adding 0.6 μM ATP to TK substrate-3-biotin (cisbio) were added, and the solution was allowed to react at 30° C. for 30 minutes at a final concentration of the test substance being 0.01 to 10,000 nM.
Thereafter, 10 μL of a detection solution (cisbio) was added to each well and allowed to react at 30° C. for 1 hour. The fluorescence intensity was measured with a microplate reader (Spectra Max M5, Molecular device).
(§2) 3. Analysis of Measurement Results

[1] = test system: pulmonary arterial smooth muscle cells; test: Suppression of proliferation of pulmonary arterial smooth muscle cells (PDGF-BB stimulation, BrdU); format: cell-based; conditions: PASMC, read-out: Human normal PASMC proliferation suppression (PDGF stimulation_IC50)
Experimental: as §1
Furthermore, it was diluted by 50 times with distilled water.
2. Measurement of Suppression Action Against Proliferation of Pulmonary Arterial Smooth Muscle Cells
The day after healthy human derived pulmonary arterial smooth muscle cells were seeded onto a 96 well plate using a smooth muscle cell proliferation medium, the proliferation medium was replaced with a 0.1% FBS medium, and the cells were cultured for an additional day. A test substance solution was diluted by 10 times with a medium containing BrdU and human PDGF-BB (final concentration of 10 ng/mL, Sigma-Aldrich) and added to cells in equal amounts so as to reach a final concentration of 3 to 10,000 nM. Also, to the human PDGF-BB negative control, BrdU and 0.1% DMSO solution were added. After culturing for 1 day, the amount of BrdU taken up by the proliferating cells was measured using an anti-BrdU antibody.
as §2

[2] = 24 h, healthy human derived pulmonary arterial smooth muscle cells, human PDGF-BB 10 ng/mL stimulation, BrdU uptake after 1 day, test substance final concentration 3 to 10,000 nM

Chain of PDGFR-β (P09619 33-1106): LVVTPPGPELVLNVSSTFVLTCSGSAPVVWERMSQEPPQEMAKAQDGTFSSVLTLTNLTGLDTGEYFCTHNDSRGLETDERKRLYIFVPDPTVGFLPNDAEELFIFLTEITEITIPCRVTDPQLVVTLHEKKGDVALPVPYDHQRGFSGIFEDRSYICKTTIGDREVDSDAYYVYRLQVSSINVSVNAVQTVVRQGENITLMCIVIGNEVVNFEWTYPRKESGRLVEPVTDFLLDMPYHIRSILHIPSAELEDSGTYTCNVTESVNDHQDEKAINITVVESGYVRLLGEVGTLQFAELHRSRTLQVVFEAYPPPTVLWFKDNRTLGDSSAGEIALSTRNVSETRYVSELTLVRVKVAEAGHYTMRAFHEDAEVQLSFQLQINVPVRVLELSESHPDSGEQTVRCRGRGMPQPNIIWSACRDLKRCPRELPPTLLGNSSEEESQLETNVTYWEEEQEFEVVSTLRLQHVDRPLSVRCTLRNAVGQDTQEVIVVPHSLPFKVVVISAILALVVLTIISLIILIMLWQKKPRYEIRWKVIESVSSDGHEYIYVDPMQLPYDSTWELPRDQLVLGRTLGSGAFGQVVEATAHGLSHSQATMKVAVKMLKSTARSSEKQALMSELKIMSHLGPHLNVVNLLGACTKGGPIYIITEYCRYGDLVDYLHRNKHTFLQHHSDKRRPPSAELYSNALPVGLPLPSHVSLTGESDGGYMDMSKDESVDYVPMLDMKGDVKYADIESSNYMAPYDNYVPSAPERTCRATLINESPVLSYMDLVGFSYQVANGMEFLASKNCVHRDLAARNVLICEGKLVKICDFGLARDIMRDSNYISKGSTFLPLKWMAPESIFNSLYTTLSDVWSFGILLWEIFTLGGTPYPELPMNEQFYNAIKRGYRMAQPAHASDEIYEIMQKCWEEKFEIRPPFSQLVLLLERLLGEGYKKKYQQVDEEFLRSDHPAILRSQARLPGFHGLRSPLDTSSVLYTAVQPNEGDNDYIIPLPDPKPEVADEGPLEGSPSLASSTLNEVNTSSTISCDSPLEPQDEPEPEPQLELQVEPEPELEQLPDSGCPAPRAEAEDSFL

`Cc1ccc(C(=O)N[C@H]2CCCC[C@@H]2O)cc1/C=C(\F)c1cnc2cccnn12` [Example 179, 3-[(Z)-2-fluoro-2-(imidazo[1,2-b]pyridazin-3-yl)ethenyl]-N-[(1S,2S)-2-hydroxycyclohexyl]-4-methylbenzamide] gave an IC50 (PDGFR-β) of 5.9 nM and an IC50 [1, 2] of 20 nM.
For `COc1ccc(-c2ncc(CNc3cc(C(=O)N[C@H]4CCCC[C@@H]4O)ccc3C)cn2)cc1` [Example 128, N-[(1S,2S)-2-hydroxycyclohexyl]-3-({[2-(4-methoxyphenyl)pyrimidin-5-yl]methyl}amino)-4-methylbenzamide], the IC50 (PDGFR-β) was 180 nM and the IC50 [1, 2] was 79 nM.
`Cc1ccc(C(=O)N[C@H]2CCCC[C@@H]2O)cc1/C=C(\F)c1cncc(CN2CCOCC2)c1` [Example 182, 3-[(Z)-2-fluoro-2-{5-[(morpholin-4-yl)methyl]pyridin-3-yl}ethenyl]-N-[(1S,2S)-2-hydroxycyclohexyl]-4-methylbenzamide] was tested, and the IC50 (PDGFR-β) was 33 nM and the IC50 [1, 2] was 190 nM.
Molecule `Cc1ccc(C(=O)N[C@H]2CCCC[C@@H]2O)cc1NCc1ccc(-c2ccccn2)nc1` [Example 118, 3-{[([2,2′-bipyridin]-5-yl)methyl]amino}-N-[(1S,2S)-2-hydroxycyclohexyl]-4-methylbenzamide] has an IC50 (PDGFR-β) of 390 nM and an IC50 [1, 2] of 140 nM.
`Cc1ccc(C(=O)N[C@H]2CCCC[C@@H]2O)cc1NCc1ccc(NC(=O)N(C)C2CC2)nc1` [Example 133, 3-{[(6-{[cyclopropyl(methyl)carbamoyl]amino}pyridin-3-yl)methyl]amino}-N-[(1S,2S)-2-hydroxycyclohexyl]-4-methylbenzamide] showed an IC50 (PDGFR-β) of 170 nM and an IC50 [1, 2] of 110 nM.
`CCN1CCN(Cc2cncc(/C(F)=C/c3cc(C(=O)N[C@H]4CCCC[C@@H]4O)ccc3C)c2)CC1` [Example 194, 3-[(Z)-2-{5-[(4-ethylpiperazin-1-yl)methyl]pyridin-3-yl}-2-fluoroethenyl]-N-[(1S,2S)-2-hydroxycyclohexyl]-4-methylbenzamide] showed an IC50 (PDGFR-β) of 35 nM and an IC50 [1, 2] of 74 nM.
With `Cc1ccc(C(=O)N[C@H]2CCCC[C@@H]2O)cc1NCc1cnc(NC2CCOCC2)nc1` [Example 132, N-[(1S,2S)-2-hydroxycyclohexyl]-4-methyl-3-[({2-[(oxan-4-yl)amino]pyrimidin-5-yl}methyl)amino]benzamide] the IC50 (PDGFR-β) was 72 nM and the IC50 [1, 2] was 73 nM.
`Cc1ccc(C(=O)N[C@H]2CCCC[C@@H]2O)cc1/C=C(\F)c1cnc(N)cn1` [Example 206, 3-[(Z)-2-(5-aminopyrazin-2-yl)-2-fluoroethenyl]-N-[(1S,2S)-2-hydroxycyclohexyl]-4-methylbenzamide] was tested, and the IC50 (PDGFR-β) was 31 nM and the IC50 ([1]; human PDGF-BB 10 ng/mL, BrdU uptake, final concentration 3 to 10,000 nM) was 92 nM.
In the case of `Cc1ccc(C(=O)NCC(O)C(C)(C)C)cc1/C=C(\F)c1cncc(CN2CCN(C)CC2)c1` (stereo not drawn) [Example 201, 3-[(Z)-2-fluoro-2-{5-[(4-methylpiperazin-1-yl)methyl]pyridin-3-yl}ethenyl]-N-(2-hydroxy-3,3-dimethylbutyl)-4-methylbenzamide], the IC50 (PDGFR-β) is reported as 38 nM and the IC50 [1, 2] is reported as 120 nM.
With `Cc1ncc(C(=O)N[C@H]2CCCC[C@@H]2O)cc1/C=C(\F)c1cnc(N)nc1` [Example 190, 5-[(Z)-2-(2-aminopyrimidin-5-yl)-2-fluoroethenyl]-N-[(1S,2S)-2-hydroxycyclohexyl]-6-methylpyridine-3-carboxamide] the IC50 (PDGFR-β) was 110 nM and the IC50 [1, 2] was 110 nM.
`Cc1ccc(C(=O)N[C@H]2CCCC[C@@H]2O)cc1NCc1ccc(NC2COC2)nc1` [Example 141, N-[(1S,2S)-2-hydroxycyclohexyl]-4-methyl-3-[({6-[(oxetan-3-yl)amino]pyridin-3-yl}methyl)amino]benzamide] was tested, and the IC50 (PDGFR-β) was 69 nM and the IC50 [1, 2] was 190 nM.
`O=C(N[C@H]1CCCC[C@@H]1O)c1ccc(F)c(/C=C(\F)c2cncc(-c3ncccn3)c2)c1` [Example 178, 4-fluoro-3-{(Z)-2-fluoro-2-[5-(pyrimidin-2-yl)pyridin-3-yl]ethenyl}-N-[(1S,2S)-2-hydroxycyclohexyl]benzamide] was tested, and the IC50 (PDGFR-β) was 26 nM and the IC50 [1, 2] was 44 nM.
